Reference: patent US11566007B2, “Ras inhibitors” (Revolution Medicines, Inc., priority 2019, dated 2023)

Tests used:
K-Ras G12C = K-Ras G12C (Homo sapiens (Human), UniProt P01116+P62937, G12C); assay: Ras-Raf (BRAF RBD) disruption / FRET / MOA assay, KRAS G12C; type: biochemical; conditions: KRAS G12C; Ras-Raf disruption/FRET/MOA assay; read-out: IC50* KRAS G12C FRET data
Summary of the method: (§1)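 Compound-driven ternary complex of nucleotide-loaded Ras with cyclophilin A, disrupting BRAF RBD binding. 10-point 3-fold dilution from 30 μM final, 3 h at 25° C, then anti-His Eu-W1024 (10 nM) and anti-GST allophycocyanin (50 nM) for 1.5 h. IC50 from TR-FRET ratio decrease versus DMSO.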

KRAS G12D = KRAS G12D (Homo sapiens (Human), UniProt P01116+P62937, G12D); assay: Ras-Raf (BRAF RBD) disruption / FRET / MOA assay, KRAS G12D; type: biochemical; conditions: Ras-Raf disruption/FRET/MOA assay; class symbols; read-out: KRAS G12D FRET data IC50
Sequence of KRAS G12D (P01116-2 other isoform, or with tags, fused parts or gaps G12D): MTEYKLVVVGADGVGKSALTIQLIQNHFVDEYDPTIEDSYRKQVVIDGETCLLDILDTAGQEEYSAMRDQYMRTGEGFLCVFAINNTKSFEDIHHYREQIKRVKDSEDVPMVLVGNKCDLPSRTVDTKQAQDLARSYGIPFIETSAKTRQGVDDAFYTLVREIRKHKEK
Sequence of KRAS G12D (P62937 whole entry): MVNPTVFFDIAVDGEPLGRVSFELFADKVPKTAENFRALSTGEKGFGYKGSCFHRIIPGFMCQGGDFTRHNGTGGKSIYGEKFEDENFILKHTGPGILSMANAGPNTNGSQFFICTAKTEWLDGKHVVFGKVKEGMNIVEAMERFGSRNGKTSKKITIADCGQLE
Summary of the method: as §1

NRAS Q61K = NRAS Q61K (Homo sapiens (Human), UniProt P01111+P62937, Q61K); assay: Ras-Raf (BRAF RBD) disruption / FRET / MOA assay, NRAS Q61K; type: biochemical; conditions: NRAS Q61K; Ras-Raf disruption/FRET/MOA assay; read-out: IC50* NRAS Q61K FRET data
Sequence of NRAS Q61K (P01111 whole entry Q61K, canonical isoform): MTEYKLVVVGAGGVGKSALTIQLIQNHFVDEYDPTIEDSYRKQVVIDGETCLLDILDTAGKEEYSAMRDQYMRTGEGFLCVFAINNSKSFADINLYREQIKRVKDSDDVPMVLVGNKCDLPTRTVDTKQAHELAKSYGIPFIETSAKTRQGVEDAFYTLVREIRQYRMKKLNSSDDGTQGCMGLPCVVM
Sequence of NRAS Q61K (P62937 whole entry, canonical isoform): as the sequence (P62937 whole entry) above
Description: (§2) The purpose of this biochemical assay is to measure the ability of test compounds to facilitate ternary complex formation between a nucleotide-loaded Ras isoform and cyclophilin A; the resulting ternary complex disrupts binding to a BRAF^RBD construct, inhibiting Ras signaling through a RAF effector.
(§3) […]. Compound is present in plate wells as a 10-point 3-fold dilution series starting at a final concentration of 30 μM. After incubation at 25° C. for 3 hours, a mixture of Anti-His Eu-W1024 and anti-GST allophycocyanin is then added to assay sample wells at final concentrations of 10 nM and 50 nM, respectively, and the reaction incubated for an additional 1.5 hours. […] Compounds that facilitate disruption of a Ras:RAF complex are identified as those eliciting a decrease in the TR-FRET ratio relative to DMSO control wells.
(§4) Note—The following protocol describes a procedure for monitoring disruption of K-Ras G12C (GMP-PNP) binding to BRAF^RBD by a compound of the invention. This protocol may also be executed substituting other Ras proteins or nucleotides.
(§5) The purpose of this biochemical assay was to measure the ability of test compounds to facilitate ternary complex formation between a nucleotide-loaded K-Ras isoform and Cyclophilin A; the resulting ternary complex disrupts binding to a BRAF^RBD construct, inhibiting K-Ras signaling through a RAF effector. Data is reported as IC50 values.
as §3, with “Compound was” for “Compound is”, “allophycocyanin was” for “allophycocyanin is”, “a K-Ras:RAF” for “a Ras:RAF”, “complex were” for “complex are”

KRAS Q61H = KRAS Q61H (Homo sapiens (Human), UniProt P01116+P62937, Q61H); assay: Ras-Raf (BRAF RBD) disruption / FRET / MOA assay, KRAS Q61H; type: biochemical; conditions: Ras-Raf disruption/FRET/MOA assay; class symbols; read-out: KRAS Q61H FRET data IC50
Sequence of KRAS Q61H (P01116-2 other isoform, or with tags, fused parts or gaps Q61H): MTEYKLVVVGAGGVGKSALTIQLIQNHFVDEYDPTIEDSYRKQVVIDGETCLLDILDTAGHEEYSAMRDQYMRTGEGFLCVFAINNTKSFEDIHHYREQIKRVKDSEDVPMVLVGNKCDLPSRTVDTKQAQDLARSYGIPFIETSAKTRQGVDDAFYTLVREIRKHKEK
Sequence of KRAS Q61H (P62937 whole entry): as the sequence (P62937 whole entry) above
Description: as §2, §3, §4, §5
as §3, with “Compound was” for “Compound is”, “allophycocyanin was” for “allophycocyanin is”, “a K-Ras:RAF” for “a Ras:RAF”, “complex were” for “complex are”

KRAS G13D = KRAS G13D (Homo sapiens (Human), UniProt P01116+P62937, G13D); assay: Ras-Raf (BRAF RBD) disruption / FRET / MOA assay, KRAS G13D; type: biochemical; conditions: read-out: IC50* KRAS G13D FRET data
Sequence of KRAS G13D (P01116-2 other isoform, or with tags, fused parts or gaps G13D): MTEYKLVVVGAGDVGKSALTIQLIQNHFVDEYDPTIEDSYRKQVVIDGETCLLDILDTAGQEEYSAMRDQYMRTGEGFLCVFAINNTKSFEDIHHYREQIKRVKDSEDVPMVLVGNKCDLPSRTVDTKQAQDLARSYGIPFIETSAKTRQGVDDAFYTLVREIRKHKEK
Sequence of KRAS G13D (P62937 whole entry): as the sequence (P62937 whole entry) above
Summary of the method: as §1

NRAS WT = NRAS WT (Homo sapiens (Human), UniProt P01111+P62937); assay: Ras-Raf (BRAF RBD) disruption / FRET / MOA assay, NRAS WT; type: biochemical; conditions: read-out: IC50* NRAS WT FRET data
Sequence of NRAS WT (P01111 whole entry): as the sequence (P01111 whole entry Q61K, canonical isoform) above, with K61Q counted along it
Sequence of NRAS WT (P62937 whole entry): as the sequence (P62937 whole entry) above
Description: as §2, §3, §4, §5
as §3, with “Compound was” for “Compound is”, “allophycocyanin was” for “allophycocyanin is”, “a K-Ras:RAF” for “a Ras:RAF”, “complex were” for “complex are”

KRAS G12V = KRAS G12V (Homo sapiens (Human), UniProt P01116+P62937, G12V); assay: Ras-Raf (BRAF RBD) disruption / FRET / MOA assay, KRAS G12V; type: biochemical; conditions: read-out: IC50* KRAS G12V FRET data
Sequence of KRAS G12V (P01116-2 other isoform, or with tags, fused parts or gaps G12V): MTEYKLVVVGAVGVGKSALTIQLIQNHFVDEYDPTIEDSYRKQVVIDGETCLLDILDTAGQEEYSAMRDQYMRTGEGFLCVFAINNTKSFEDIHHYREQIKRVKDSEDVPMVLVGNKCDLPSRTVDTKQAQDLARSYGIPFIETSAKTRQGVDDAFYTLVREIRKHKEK
Sequence of KRAS G12V (P62937 whole entry): as the sequence (P62937 whole entry) above
Summary of the method: as §1

KRAS G12S = KRAS G12S (Homo sapiens (Human), UniProt P01116+P62937, G12S); assay: Ras-Raf (BRAF RBD) disruption / FRET / MOA assay, KRAS G12S; type: biochemical; conditions: Ras-Raf disruption/FRET/MOA assay; class symbols; read-out: KRAS G12S FRET data IC50
Sequence of KRAS G12S (P01116-2 other isoform, or with tags, fused parts or gaps G12S): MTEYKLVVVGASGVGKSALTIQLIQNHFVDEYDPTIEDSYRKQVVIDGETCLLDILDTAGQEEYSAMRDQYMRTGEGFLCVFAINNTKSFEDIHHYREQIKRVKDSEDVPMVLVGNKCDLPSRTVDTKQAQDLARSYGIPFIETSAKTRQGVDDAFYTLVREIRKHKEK
Sequence of KRAS G12S (P62937 whole entry): as the sequence (P62937 whole entry) above
Summary of the method: as §1

NRAS G12C = NRAS G12C (Homo sapiens (Human), UniProt P01111+P62937, G12C); assay: Ras-Raf (BRAF RBD) disruption / FRET / MOA assay, NRAS G12C; type: biochemical; conditions: read-out: IC50* NRAS G12C FRET data
Sequence of NRAS G12C (P01111 whole entry G12C): as the sequence (P01111 whole entry Q61K, canonical isoform) above, with G12C, K61Q counted along it
Sequence of NRAS G12C (P62937 whole entry): as the sequence (P62937 whole entry) above
Summary of the method: as §1

NRAS Q61R = NRAS Q61R (Homo sapiens (Human), UniProt P01111+P62937, Q61R); assay: Ras-Raf (BRAF RBD) disruption / FRET / MOA assay, NRAS Q61R; type: biochemical; conditions: NRAS Q61R; Ras-Raf disruption/FRET/MOA assay; read-out: IC50* NRAS Q61R FRET data
Sequence of NRAS Q61R (P01111 whole entry Q61R): as the sequence (P01111 whole entry Q61K, canonical isoform) above, with K61R counted along it
Sequence of NRAS Q61R (P62937 whole entry): as the sequence (P62937 whole entry) above
Description: as §2, §3, §4, §5
as §3, with “Compound was” for “Compound is”, “allophycocyanin was” for “allophycocyanin is”, “a K-Ras:RAF” for “a Ras:RAF”, “complex were” for “complex are”

K-Ras G13C = K-Ras G13C (Homo sapiens (Human), UniProt P01116+P62937, G13C); assay: Ras-Raf (BRAF RBD) disruption / FRET / MOA assay, KRAS G13C; type: biochemical; conditions: KRAS G13C; Ras-Raf disruption/FRET/MOA assay; read-out: IC50* KRAS G13C FRET data
Sequence of K-Ras G13C (P01116-2 other isoform, or with tags, fused parts or gaps G13C): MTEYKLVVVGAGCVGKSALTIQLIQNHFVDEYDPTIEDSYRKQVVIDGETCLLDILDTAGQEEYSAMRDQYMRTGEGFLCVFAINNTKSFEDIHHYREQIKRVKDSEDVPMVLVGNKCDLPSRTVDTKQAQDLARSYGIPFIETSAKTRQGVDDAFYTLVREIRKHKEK
Sequence of K-Ras G13C (P62937 whole entry): as the sequence (P62937 whole entry) above
Summary of the method: as §1

KRAS WT = KRAS WT (Homo sapiens (Human), UniProt P01116+P62937); assay: Ras-Raf (BRAF RBD) disruption / FRET / MOA assay, KRAS WT; type: biochemical; conditions: read-out: IC50* KRAS WT FRET data
Sequence of KRAS WT (P01116-2 other isoform, or with tags, fused parts or gaps): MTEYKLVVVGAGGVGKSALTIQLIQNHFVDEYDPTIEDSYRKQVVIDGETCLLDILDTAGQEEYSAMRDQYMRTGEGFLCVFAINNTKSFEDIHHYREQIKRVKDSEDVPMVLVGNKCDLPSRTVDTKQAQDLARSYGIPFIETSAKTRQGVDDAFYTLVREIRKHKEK
Sequence of KRAS WT (P62937 whole entry): as the sequence (P62937 whole entry) above
Summary of the method: as §1

[1] = test system: NCI-H358 cells (K-Ras G12C); assay: Potency assay: pERK in NCI-H358 cells; type: cell-based, human; conditions: Homo sapiens, NCI-H358; H358 KRAS G12C; read-out: pERK EC50
Summary of the method: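 4 h cpd, 37 °C; 10-pt 3-fold series, 10 mM DMSO top stock, duplicates. Readout pERK: AlphaLISA SureFire Ultra or In-Cell Western (IR-800CW secondary, DRAQ5 DNA stain). IC50, 4-PL fit vs log conc.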

NCI-H358 (K-Ras G12C) = assay: CellTiter-Glo cell viability assay, NCI-H358; type: cell-based, human; conditions: Homo sapiens, NCI-H358, 120 h, NCI-H358, 5-day treatment; class symbols; read-out: Additional H358 Cell Viability assay data (K-Ras G12C, IC50)
Summary of the method: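 Viability of K-Ras mutant lines is measured by ATP luminescence after five days of compound treatment. Percent of DMSO control is calculated and dose-response data are fitted with a four-parameter logistic equation.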

Sequence of K-Ras G12C (P01116-2 other isoform, or with tags, fused parts or gaps G12C): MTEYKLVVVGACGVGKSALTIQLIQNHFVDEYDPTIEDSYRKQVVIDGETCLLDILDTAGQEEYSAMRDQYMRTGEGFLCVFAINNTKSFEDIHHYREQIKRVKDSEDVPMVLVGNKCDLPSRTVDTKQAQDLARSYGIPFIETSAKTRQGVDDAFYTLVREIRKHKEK
Sequence of K-Ras G12C (P62937 whole entry): as the sequence (P62937 whole entry) above

Row | Structure (SMILES) | IC50 (K-Ras G12C) [nM] | IC50 (KRAS G12D) [nM] | IC50 (NRAS Q61K) [nM] | IC50 (KRAS Q61H) [nM] | IC50 (KRAS G13D) [nM] | IC50 (NRAS WT) [nM] | IC50 (KRAS G12V) [nM] | IC50 (KRAS G12S) [nM] | IC50 (NRAS G12C) [nM] | IC50 (NRAS Q61R) [nM] | IC50 (K-Ras G13C) [nM] | IC50 (KRAS WT) [nM] | EC50 [1] [nM] | IC50 (NCI-H358 (K-Ras G12C)) [nM]
1 | C=CC(=O)N1CC[C@H](C(=O)N(C)[C@H](C(=O)N[C@H]2Cc3cc(sn3)-c3ccc4c(c3)c(c(-c3cccnc3[C@H](C)OC)n4CC)CC(C)(C)COC(=O)[C@@H]3CCCN(N3)C2=O)C(C)C)C1 (atropisomer, axis not shown) [Example A340] | 100 to 1000 | > 10000 | 100 to 1000 | 100 to 1000 | 1000 to 10000 | 100 to 1000 | 1000 to 10000 | 1000 to 10000 | 100 to 1000 | 1000 to 10000 | 100 to 1000 | 1000 to 10000 |  | 
2 | C=CC(=O)N(C)[C@H]1CCN(C(=O)N(C)[C@H](C(=O)N[C@H]2Cc3nc(cs3)-c3ccc4c(c3)c(c(-c3cccnc3[C@H](C)OC)n4CC)CC(C)(C)COC(=O)[C@@H]3CCCN(N3)C2=O)C(C)C)C1 (atropisomer, axis not shown) [Example A384] |  | 100 to 1000 | 10 to 100 |  |  | 100 to 1000 | 100 to 1000 | 100 to 1000 | 10 to 100 | 100 to 1000 | 100 to 1000 | 100 to 1000 | < 5000 | < 10

Further lines, with some results ahead:

Row | IC50 (K-Ras G12C) [nM] | IC50 (KRAS G12D) [nM] | IC50 (NRAS Q61K) [nM] | IC50 (KRAS Q61H) [nM] | IC50 (KRAS G13D) [nM] | IC50 (NRAS WT) [nM] | IC50 (KRAS G12V) [nM] | IC50 (KRAS G12S) [nM] | IC50 (NRAS G12C) [nM] | IC50 (NRAS Q61R) [nM] | IC50 (K-Ras G13C) [nM] | IC50 (KRAS WT) [nM] | EC50 [1] [nM] | Structure (SMILES) | IC50 (NCI-H358 (K-Ras G12C)) [nM]
3 | 10 to 100 | 1000 to 10000 | 1000 to 10000 | 1000 to 10000 | 1000 to 10000 | 1000 to 10000 | 1000 to 10000 | 1000 to 10000 | 10 to 100 | 1000 to 10000 | 100 to 1000 | 1000 to 10000 | < 5000 | CO[C@@H](C)c1ncccc1-c1c2c3cc(ccc3n1CC(F)(F)F)-c1cc(cc(C(F)F)c1)C[C@H](NC(=O)[C@H](C(C)C)N(C)C(=O)[C@H]1CCN(C(=O)C#CC(C)(C)N3CCC3)C1)C(=O)N1CCC[C@H](N1)C(=O)OCC(C)(C)C2 (atropisomer, axis not shown) [Example A370] | 
4 | 100 to 1000 | > 10000 | > 10000 | > 10000 | > 10000 | 1000 to 10000 | 1000 to 10000 | 1000 to 10000 | 100 to 1000 | > 10000 | 1000 to 10000 | 1000 to 10000 | < 5000 | C=CC(=O)N1CC[C@H](C(=O)N(C)[C@H](C(=O)N[C@H]2C[C@H]3CN(CCO3)c3ccc4c(c3)c(c(-c3cccnc3[C@H](C)OC)n4CC)CC(C)(C)COC(=O)[C@@H]3CCCN(N3)C2=O)C(C)C)C1 (atropisomer, axis not shown) [Example A378] | 
5 | < 10 | > 10000 | 1000 to 10000 | 1000 to 10000 | 1000 to 10000 | 1000 to 10000 | 1000 to 10000 | 1000 to 10000 | < 10 | 1000 to 10000 | 1000 to 10000 | 1000 to 10000 | < 5000 | CCn1c(-c2cccnc2[C@H](C)OC)c2c3cc(ccc31)-c1cccc(c1)C[C@H](NC(=O)[C@H](C1CCCC1)N(C)C(=O)[C@@H]1CN(C(=O)C#CC(C)(C)N(C)C)C[C@@H]1C)C(=O)N1CCC[C@H](N1)C(=O)OCC(C)(C)C2 (atropisomer, axis not shown) [Example A391] | 
